Patent publication EP1555271A1, “Peptides useful for diagnosis and therapy of TRP-2+ and/or TRP-1+ tumors” (Deutsches Krebsforschungszentrum Stiftung des öffentlichen …, priority 2004, dated 2005)
Ends that are not written are not given here.

Molecular target: HLA-DRB1*0301 (Homo sapiens, UniProt P01903+P01911, A100K/A102G/A103R/A169T/F55Y/I96L/K41T/L162R/M171V/P40S/Q125H/Q178H/Q39Y/R42S/S66N/T106N/T262R/W38E/Y61H)
Assay: HLA-DR competitive binding assay on T2.DR3 cells (biotinylated TT829-843 reporter peptide, Europium sandwich immunoassay)
Conditions: dose necessary to reduce TT reporter peptide binding to 50%, 10 µM TT829-843 reporter, 180 min

IC50: 7.5 µM
Sequence: HLLCLERDLQRLIGN [TRP-2223-237, HLLCLERDLQRLIGN]
